Values after ≈ are worked out from the molar mass of the structure shown.
How the values were obtained:
Renin = target: T1, Renin (Homo sapiens, UniProt P00797); assay: Inhibitory activity against renin in fluorescent tGFP assay
T1 sequence (P00797 whole entry): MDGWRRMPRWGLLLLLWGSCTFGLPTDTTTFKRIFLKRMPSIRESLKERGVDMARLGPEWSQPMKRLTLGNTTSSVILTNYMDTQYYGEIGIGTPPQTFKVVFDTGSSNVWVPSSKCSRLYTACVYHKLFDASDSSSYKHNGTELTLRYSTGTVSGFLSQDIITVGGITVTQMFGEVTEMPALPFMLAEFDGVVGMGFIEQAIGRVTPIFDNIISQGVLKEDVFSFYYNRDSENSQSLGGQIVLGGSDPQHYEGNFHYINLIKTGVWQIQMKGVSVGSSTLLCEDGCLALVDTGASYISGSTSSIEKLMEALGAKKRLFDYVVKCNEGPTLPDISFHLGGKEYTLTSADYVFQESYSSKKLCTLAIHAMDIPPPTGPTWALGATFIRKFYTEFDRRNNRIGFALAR

CYP3A4 = CYP3A4 (Homo sapiens, UniProt P08684); assay: Inhibition of CYP3A4 at 3 uM was measured using fluorogenic substrate 7-Benzyloxy-4-(trifluoromethyl)-coumarin; assay type: ADME; settings: probe 7-Benzyloxy-4-(trifluoromethyl)-coumarin
Sequence of CYP3A4 (P08684 whole entry): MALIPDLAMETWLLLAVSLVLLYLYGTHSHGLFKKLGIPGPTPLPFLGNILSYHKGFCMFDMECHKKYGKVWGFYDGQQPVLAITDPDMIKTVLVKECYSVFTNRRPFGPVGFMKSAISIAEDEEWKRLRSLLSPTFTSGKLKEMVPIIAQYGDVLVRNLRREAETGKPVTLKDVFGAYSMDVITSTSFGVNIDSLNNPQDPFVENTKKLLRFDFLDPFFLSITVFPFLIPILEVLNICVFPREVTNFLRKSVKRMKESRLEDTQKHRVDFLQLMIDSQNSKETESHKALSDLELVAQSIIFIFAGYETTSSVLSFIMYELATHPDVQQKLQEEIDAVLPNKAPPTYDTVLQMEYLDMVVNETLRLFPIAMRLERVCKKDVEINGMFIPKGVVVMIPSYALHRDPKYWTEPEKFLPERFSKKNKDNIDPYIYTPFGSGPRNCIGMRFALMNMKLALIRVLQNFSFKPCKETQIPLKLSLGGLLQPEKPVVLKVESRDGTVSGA

[1] = Apparent solubility was measured at PH 6.5 by nepholometric method; assay type: ADME; settings: buffer
[2] = Distribution coefficient at PH 7.4 was determined; assay type: physicochemical; settings: octanol/water

Row | IC50 (Renin) [nM] | Compound | also measured
1 | 230 | COc1ccccc1COCCCOc1ccc(N2C(=O)CNC[C@@H]2COCc2cccc(C(F)(F)F)c2)cc1 | 
2 | 600 | COc1cccc(COC[C@H]2CNCC(=O)N2c2ccc(OCCCOCc3ccccc3OC)cc2)c1 | 
3 | 260 | COc1ccccc1COCCCOc1ccc(N2C(=O)CNC[C@@H]2COCc2ccc(C)c(Cl)c2)cc1 | 
4 | 0.4 | COc1ccccc1COCCCOc1ccc(N2C(=O)CNC[C@@H]2COc2ccc3c(c2)N(CCNC(C)=O)CCC3)cc1 | 
5 | 270 | COc1ccccc1COCCCOc1ccc(N2C(=O)CNC[C@@H]2COCc2ccc(F)c(C)c2)cc1 | 
6 | 330 | COc1ccccc1COCCCOc1ccc(N2C(=O)CNC[C@@H]2COCc2cccc(Cl)c2)cc1 | 
7 | 410 | COc1ccccc1COCCCOc1ccc(N2C(=O)CNC[C@@H]2COCc2ccc(F)cc2Cl)cc1 | 
8 | 300 | COc1ccccc1COCCCOc1ccc(N2C(=O)CNC[C@@H]2COCc2ccc(Cl)cc2)cc1 | 
9 | 250 | COc1ccccc1COCCCOc1ccc(N2C(=O)CNC[C@@H]2COCc2ccc(F)c(F)c2)cc1 | 
10 | 230 | COc1ccccc1COCCCOc1ccc(N2C(=O)CNC[C@@H]2COCc2ccccc2F)cc1 | 

The next lines start with the molecule.

Row | Compound | IC50 (Renin) [nM] | also measured
11 | COc1ccccc1COCCCOc1ccc(N2C(=O)CNC[C@H]2COCc2ccc(Cl)c(C(F)(F)F)c2)cc1 | 594 | 
12 | COc1ccccc1COCCCOc1ccc(N2C(=O)CNC[C@@H]2COCc2ccncc2)cc1 | > 1000 | 
13 | COc1ccccc1COCCCOc1ccc(N2C(=O)CNC[C@@H]2COCc2ccccc2C(F)(F)F)cc1 | 270 | 
14 | COc1ccccc1COCCCOc1ccc(N2C(=O)CNC[C@@H]2COCc2cc(F)cc(F)c2)cc1 | 1600 | 
15 | COc1ccccc1COCCCOc1ccc(N2C(=O)CNC[C@@H]2COCc2ccc(F)c(C(F)(F)F)c2)cc1 | 140 | inhibition at 3 µM (CYP3A4): 87%; solubility kinetic [1]: 7 µg/mL (≈ 12.1 µM); logD [2]: 3.7
16 | COc1ccccc1COCCCOc1ccc(N2C(=O)CNC[C@@H]2COCc2cccnc2)cc1 | 120 | inhibition at 3 µM (CYP3A4): 44%; solubility kinetic [1]: 100 µg/mL (≈ 203 µM); logD [2]: 2.9
17 | COc1ccccc1COCCCOc1ccc(N2C(=O)CNC[C@@H]2COCc2cccc(C(F)(F)F)c2F)cc1 | 270 | 
18 | COc1ccccc1COCCCOc1ccc(N2C(=O)CNC[C@@H]2COCc2ccc(Cl)c(C(F)(F)F)c2)cc1 | 120 | inhibition at 3 µM (CYP3A4): 97%; solubility kinetic [1]: 3 µg/mL (≈ 5.06 µM); logD [2]: 3.7
19 | COc1ccccc1COCCCOc1ccc(N2C(=O)CNC[C@@H]2COCc2cccc(C#N)c2)cc1 | 1200 | 
20 | COc1ccccc1COCCCOc1ccc(N2C(=O)CNC[C@H]2COCc2cccnc2)cc1 | > 10000 | 
21 | COc1ccccc1COCCCOc1ccc(N2C(=O)CNC[C@@H]2COCc2ccc(C(F)(F)F)cc2)cc1 | 6800 | 
22 | COc1ccccc1COCCCOc1ccc(N2C(=O)CNC[C@@H]2COCc2cccc(OC(F)(F)F)c2)cc1 | 410 | 
23 | COc1ccccc1COCCCOc1ccc(N2C(=O)CNC[C@@H]2COCc2ccccn2)cc1 | > 1000 | 
24 | COc1ccccc1COCCCOc1ccc(N2C(=O)CNC[C@@H]2COCc2cc(Cl)cc(Cl)c2)cc1 | 180 | 
25 | COc1ccccc1COCCCOc1ccc(N2C(=O)CNC[C@@H]2COCc2ccccc2OC)cc1 | 900 | 

— ChEMBL document CHEMBL1143457, “Benzyl ether structure-activity relationships in a series of ketopiperazine-based renin inhibitors” (Bioorg Med Chem Lett, 2005)
